Measurements from US20100160217A1 (priority 2005, published 2010).

What was measured:
[1] = test system: nAChRs; conditions: unc-74 animals; reduction not greater than in unc-38 mutants
Method: (§1) Electrophysiology was performed as previously described (Richmond and Jorgensen, 1999a).
(§2) To directly examine levamisole sensitive nAChR function, electrophysiological analysis was performed on wild type and unc-74 mutant animals (FIG. 2). Intact body wall muscles of dissected animals were voltage clamped and the amount of current elicited in response to levamisole was measured.

[2] = test system: C. elegans; test: Aldicarb resistance assay (paralysis on drug plates); assay type: in vivo; conditions: unc-74 animals (data not shown)
Method: (§3) Pharmacological resistance assays. Plates were equilibrated to room temperature, weighed, and equal volumes of different concentrations of levamisole or aldicarb were added to make plates containing specific concentrations of drug. Once plates dried, they were seeded with a drop of OP50 and incubated overnight at room temperature. A minimum of 15 young adult animals (levamisole) or L4 animals (aldicarb) were placed on drug plates and maintained for two (levamisole) or eight (aldicarb) hours. The percentage of animals on each plate that were paralyzed in response to mild stimulation was determined. Data presented represents the mean +/− SEM of n=number of plates.

[3] = test system: C. elegans
Method: as §3

[4] = test system: levamisole sensitive nAChR
Method: as §1, §2

[5] = test system: UNC-49/GABAA receptors; test: Electrophysiology: GABA-induced current in wild type and unc-74 animals; assay type: cell-based, C. elegans; conditions: unc-74 mutant animals

**Q.** `CN1CCCC1c1cccnc1` (stereo not drawn) [nicotine] was tested. Which “amplitude of nicotine current relative to wild type” value [1] did it give?
**A.** reduced

**Q.** `CNC(=O)O/N=C/C(C)(C)SC` [aldicarb] was tested. Which resistance to aldicarb [2] did it give?
**A.** only partially resistant

**Q.** How did the “resistance to levamisole (paralysis)” value ([3]; unc-74 mutant animals, all concentrations tested, FIG. 1(B)) turn out when `c1ccc([C@H]2CN3CCSC3=N2)cc1` [levamisole] was run?
**A.** completely resistant

**Q.** And the response to levamisole ([3]; unc-74 mutants, concentrations that completely paralyze wild type)?
**A.** no response

**Q.** What about the “concentration of levamisole at which animals become paralyzed” value ([3]; wild type animals, levamisole resistance curves, FIG. 1(B)) of the same compound?
**A.** ~0.15 mM

**Q.** And the “time to hypercontraction and complete paralysis” value ([3]; wild type animals, solid media, millimolar concentrations of levamisole (0.2 mM), FIG. 1(A))?
**A.** ~2 h

**Q.** What about the “inward current elicited by focal pulses of levamisole” value [4] of the same compound?
**A.** around 200 pA

**Q.** And the levamisole induced current ([4]; unc-74 mutants, voltage clamped muscle cells)?
**A.** completely abolished

**Q.** `NCCCC(=O)O` [GABA] was tested. Which “GABA induced currents compared with wild type” value [5] did it give?
**A.** equivalent
